Data published in ChEMBL document CHEMBL1159105, “Predictive screening model for potential vector-mediated transport of cationic substrates at the blood-brain barrier choline transporter” (Bioorg Med Chem Lett, 2010).

test system: not listed separately; test: Inhibition of nAChR-mediated nicotine-induced [3H]dopamine release

Q: For `Cc1ccc[n+](CCCCCCCCCCCC[n+]2cccc(C)c2)c1`, which IC50 is on record?
A: The IC50 was 2 nM.

species: Rattus norvegicus; test: Inhibition of blood brain barrier choline transporter-mediated [3H]choline uptake in Fischer-344 rat brain at 250 uM by perfusion technique; assay type: tissue-based

Q: For `Cc1cc[n+](CCCCCCCCCCCC[n+]2ccc(C)cc2)cc1`, which logKi is on record?
A: Its logKi is 1.93.

Q: With `OCCCc1ccc[n+](CCCc2ccc(CCC[n+]3cccc(CCCO)c3)cc2)c1` as the compound, how does the logKi read?
A: Its logKi is 2.09.

Q: Which logKi does the source give for `Cc1cc[n+](CCC#Cc2ccc(C#CCC[n+]3ccc(C)c(C)c3)cc2)cc1C` here?
A: Its logKi is 0.924.

Q: For `c1cc(-c2ccc(CCC[n+]3ccc4c(c3)CCCC4)cc2)ccc1CCC[n+]1ccc2c(c1)CCCC2`, which logKi is on record?
A: The logKi was 1.2.

Q: With `Cc1cc[n+](CCCc2ccc(-c3ccc(CCC[n+]4ccc(C)cc4)cc3)cc2)cc1` as the compound, how does the logKi read?
A: The logKi was 1.63.

Q: Which logKi does the source give for `c1cc2c([n+](CCCc3ccc(-c4ccc(CCC[n+]5cccc6c5CCCC6)cc4)cc3)c1)CCCC2` here?
A: The logKi was 1.37.

Q: For `C1#Cc2ccc[n+](c2)CCCCCCCCC[n+]2cccc(c2)C#CCCCCCCCC1`, which logKi is on record?
A: The logKi was 0.146.

Q: With `Cc1cc[n+](C#Cc2ccc(-c3ccc(C#C[n+]4ccc(C)c(C)c4)cc3)cc2)cc1C` as the compound, how does the logKi read?
A: Its logKi is 1.98.

Q: For `Cc1cccc[n+]1CCCc1ccc(-c2ccc(CCC[n+]3ccccc3C)cc2)cc1`, which logKi is on record?
A: Its logKi is 2.

Q: For `C1#Cc2ccc[n+](c2)CCCCCCCCCCC[n+]2cccc(c2)C#CCCCCCCCC1`, which logKi is on record?
A: The logKi was 1.18.

Q: For `C(#Cc1ccc(C#CCC[n+]2ccc3c(c2)CCCC3)cc1)CC[n+]1ccc2c(c1)CCCC2`, which logKi is on record?
A: Its logKi is 0.732.

Q: Which logKi does the source give for `c1ccc2c(c1)ccc[n+]2CCCCCC[n+]1cccc2ccccc21` here?
A: The logKi was 1.26.

Q: Which logKi does the source give for `C1#Cc2ccc[n+](c2)CCCCCC[n+]2cccc(c2)C#CCCCCCCCC1` here?
A: Its logKi is 1.53.

Q: Which logKi does the source give for `CN1CCCC1c1ccc[n+](CCCc2ccc(-c3ccc(CCC[n+]4cccc(C5CCCN5C)c4)cc3)cc2)c1` (stereo unspecified) here?
A: Its logKi is 1.73.

Q: For `OCCCc1ccc[n+](CCCc2ccc(-c3ccc(CCC[n+]4cccc(CCCO)c4)cc3)cc2)c1`, which logKi is on record?
A: Its logKi is 1.86.

Q: For `Cc1cc[n+](CCC#Cc2ccc(C#CCC[n+]3ccc(C)cc3)cc2)cc1`, which logKi is on record?
A: The logKi was 0.929.

Q: Which logKi does the source give for `Cc1ccc[n+](CCC#Cc2ccc(C#CCC[n+]3cccc(C)c3)cc2)c1` here?
A: The logKi was 0.595.

Q: Which logKi does the source give for `Cc1cc[n+](CCCc2ccc(-c3ccc(CCC[n+]4ccc(C)c(C)c4)cc3)cc2)cc1C` here?
A: Its logKi is 1.75.

Q: Which logKi does the source give for `CC[N+](CC)(CC)CCCCCCCCCCCC[n+]1cccc(C)c1` here?
A: The logKi was 1.34.

Q: For `CCCCC#CCCCCCC[n+]1cccc(C2CCCN2C)c1` (stereo unspecified), which logKi is on record?
A: The logKi was 1.92.

Q: For `CCCCC#CCCCCCC[n+]1ccc(C)cc1`, which logKi is on record?
A: The logKi was 2.58.

Q: For `Cc1cc(C)c[n+](CCCCc2ccc(CCCC[n+]3cc(C)cc(C)c3)cc2)c1`, which logKi is on record?
A: Its logKi is 2.56.

Q: Which logKi does the source give for `Cc1cc(C)c[n+](CCC#Cc2ccc(C#CCC[n+]3cc(C)cc(C)c3)cc2)c1` here?
A: Its logKi is 0.867.

Q: With `CCCCc1ccc(CCCC[n+]2ccc(C)cc2)cc1` as the compound, how does the logKi read?
A: The logKi was 2.69.

Q: With `Cc1cc(C)c[n+](CCCCCCCCCCC[n+]2cc(C)cc(C)c2)c1` as the compound, how does the logKi read?
A: Its logKi is 1.81.
